Data from patent US9481654B2, “Compositions and methods for inhibition of the JAK pathway” (Rigel Pharmaceuticals, Inc., priority 2006, dated 2016).

Assays:
Format in all cases: cell-based
[1] = test system: IL-4 stimulated CD23 upregulation in human Ramos B cells (JAK-1/JAK-3, Stat-6); assay: Assay for Ramos B-Cell Line Stimulated with IL-4 (CD23 upregulation, FACS); conditions: Table III Example 3
Outline: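 Flow cytometry of CD23 staining after 20-24 h IL-4 stimulation (50 units/mL final) of human Ramos B cells in RPMI with 5% serum. Cells, 5×10^4 per point, received compound or DMSO vehicle for 1 h at 37° C prior to stimulation.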

[2] = test system: primary human T-cells (IL-2 induced proliferation, JAK-1/JAK-3, Stat-5); assay: Primary Human T-Cell Proliferation Assay Stimulated with IL-2 (CellTiter-Glo); conditions: Table III Example 4
Outline: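 Read-out is intracellular ATP luminescence (CellTiter-Glo) after 72 h at 37 °C of IL-2-driven growth. Cells, pre-stimulated via TCR and CD28 then washed free of IL-2, were resuspended in Yssel's medium, given 80 U/mL IL-2 in the cell suspension plus duplicate compound; unstimulated wells lacked IL-2.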

[3] = test system: IFNγ induced ICAM-1 (CD54) up-regulation in U937 human monocytic cells (JAK/Stat pathway); assay: U937 IFNγ ICAM1 FACS Assay; conditions: Table III Example 6; 10 ng/mL IFNγ, 18-24 hours
Outline: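 Flow cytometry gave ICAM-1 (CD54) up-regulation as ICAM-APC geometric mean within the live-cell gate, alongside % viable cells. Human monocytic U937 cells received 3-fold serial compound dilutions for 30 min at 37 °C, followed by IFNγ stimulation lasting 18–24 h. Dose curves yielded EC50s.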

`CCNS(=O)(=O)c1cccc(Nc2ncc(C)c(Nc3ccc(CNS(=O)(=O)C4CC4)cc3)n2)c1` [Compound I-176, N4-(4-cyclopropylsulfonylaminomethyl)phenyl-N2-(3-ethylaminosulfonyl)phenyl-5-methyl-2,4-pyrimidinediamine] showed an IC50 [1] of 7.98 nM, an IC50 [2] of 64.5 nM and an IC50 [3] of 48.4 nM.

Work on `CCCNS(=O)(=O)c1cccc(Nc2ncc(C)c(Nc3ccc(CNS(=O)(=O)C4CC4)cc3)n2)c1` [Compound I-178, N4-(4-cyclopropylsulfonylaminomethyl)phenyl-5-methyl-N2-(3-propylaminosulfonyl)phenyl-2,4-pyrimidinediamine] yielded an IC50 [1] of 23 nM, an IC50 [2] of 122 nM and an IC50 [3] of 57.7 nM.

`Cc1cnc(Nc2cccc(S(=O)(=O)NCC3CC3)c2)nc1Nc1ccc(CNS(=O)(=O)C2CC2)cc1` [Compound I-180, N2-(3-cyclopropylmethylaminosulfonyl)phenyl-N4-(4-cyclopropylsulfonylaminomethyl)phenyl-5-methyl-2,4-pyrimidinediamine] showed an IC50 [1] of 25.7 nM, an IC50 [2] of 148 nM and an IC50 [3] of 62.2 nM.

Work on `COCCCNS(=O)(=O)c1ccc(Nc2ncc(C)c(Nc3ccc(CNS(=O)(=O)C4CC4)cc3)n2)cc1` [Compound I-181, N4-(4-cyclopropylsulfonylaminomethyl)phenyl-N2-[4-(3-methoxypropyl)aminosulfonyl]phenyl-5-methyl-2,4-pyrimidinediamine] yielded an IC50 [1] of 73.1 nM, an IC50 [2] of 121 nM and an IC50 [3] of 243 nM.

`COCCCNS(=O)(=O)c1cccc(Nc2ncc(C)c(Nc3ccc(CNS(=O)(=O)C4CC4)cc3)n2)c1` [Compound I-182, N4-(4-cyclopropylsulfonylaminomethyl)phenyl-N2-[3-(3-methoxypropyl)aminosulfonyl]phenyl-5-methyl-2,4-pyrimidinediamine] showed an IC50 [1] of 25.7 nM, an IC50 [2] of 55.1 nM and an IC50 [3] of 103 nM.

In the case of `COCCNS(=O)(=O)c1cccc(Nc2ncc(C)c(Nc3ccc(CNS(=O)(=O)C4CC4)cc3)n2)c1` [Compound I-184, N4-(4-cyclopropylsulfonylaminomethyl)phenyl-N2-[3-(2-methoxyethyl)aminosulfonyl]phenyl-5-methyl-2,4-pyrimidinediamine], the IC50 [1] is reported as 14.1 nM, the IC50 [2] is reported as 51.7 nM and the IC50 [3] is reported as 97.8 nM.

Work on `CNS(=O)(=O)c1cc(Nc2ncc(C)c(Nc3ccc(CNS(=O)(=O)C4CC4)cc3)n2)ccc1C` [Compound I-185, N4-(4-cyclopropylsulfonylaminomethyl)phenyl-5-methyl-N2-(4-methyl-3-methylaminosulfonyl)phenyl-2,4-pyrimidinediamine] yielded an IC50 [1] of 22.5 nM, an IC50 [2] of 41.1 nM and an IC50 [3] of 85.3 nM.

`CCNS(=O)(=O)c1cc(Nc2ncc(C)c(Nc3ccc(CNS(=O)(=O)C4CC4)cc3)n2)ccc1C` [Compound I-186, N4-(4-cyclopropylsulfonylaminomethyl)phenyl-N2-(3-ethylaminosulfonyl-4-methyl)phenyl-5-methyl-2,4-pyrimidinediamine] showed an IC50 [1] of 19.5 nM, an IC50 [2] of 40 nM and an IC50 [3] of 73 nM.

With `CCCNS(=O)(=O)c1cc(Nc2ncc(C)c(Nc3ccc(CNS(=O)(=O)C4CC4)cc3)n2)ccc1C` [Compound I-187, N4-(4-cyclopropylsulfonylaminomethyl)phenyl-5-methyl-N2-(4-methyl-3-propylaminosulfonyl)phenyl-2,4-pyrimidinediamine] the IC50 [1] was 72.4 nM, the IC50 [2] was 101 nM and the IC50 [3] was 174 nM.

Work on `C#CCNS(=O)(=O)c1cc(Nc2ncc(C)c(Nc3ccc(CNS(=O)(=O)C4CC4)cc3)n2)ccc1C` [Compound I-188, N4-(4-cyclopropylsulfonylaminomethyl)phenyl-5-methyl-N2-(4-methyl-3-propargylaminosulfonyl)phenyl-2,4-pyrimidinediamine] yielded an IC50 [1] of 43.6 nM, an IC50 [2] of 573 nM and an IC50 [3] of 193 nM.

In the case of `Cc1ccc(Nc2ncc(C)c(Nc3ccc(CNS(=O)(=O)C4CC4)cc3)n2)cc1S(=O)(=O)NC(C)C` [Compound I-189, N4-(4-cyclopropylsulfonylaminomethyl)phenyl-N2-(3-isopropylaminosulfonyl-4-methyl)phenyl-5-methyl-2,4-pyrimidinediamine], the IC50 [1] is reported as 35.2 nM, the IC50 [2] is reported as 34.4 nM and the IC50 [3] is reported as 153 nM.

`COCCNS(=O)(=O)c1cc(Nc2ncc(C)c(Nc3ccc(CNS(=O)(=O)C4CC4)cc3)n2)ccc1C` [Compound I-190, N4-(4-cyclopropylsulfonylaminomethyl)phenyl-N2-[3-(2-methoxyethyl)aminosulfonyl-4-methyl]phenyl-5-methyl-2,4-pyrimidinediamine] gave an IC50 [1] of 72.6 nM, an IC50 [2] of 101 nM and an IC50 [3] of 187 nM.

In the case of `COCCCNS(=O)(=O)c1cc(Nc2ncc(C)c(Nc3ccc(CNS(=O)(=O)C4CC4)cc3)n2)ccc1C` [Compound I-191, N4-(4-cyclopropylsulfonylaminomethyl)phenyl-N2-[3-(3-methoxypropyl)aminosulfonyl-4-methyl]phenyl-5-methyl-2,4-pyrimidinediamine], the IC50 [1] is reported as 51.2 nM, the IC50 [2] is reported as 79.9 nM and the IC50 [3] is reported as 247 nM.

Work on `Cc1ccc(Nc2ncc(C)c(Nc3ccc(CNS(=O)(=O)C4CC4)cc3)n2)cc1S(=O)(=O)NCC1CC1` [Compound I-192, N2-(3-cyclopropylmethylaminosulfonyl-4-methyl)phenyl-N4-(4-cyclopropylsulfonylaminomethyl)phenyl-5-methyl-2,4-pyrimidinediamine] yielded an IC50 [1] of 54.7 nM, an IC50 [2] of 43.4 nM and an IC50 [3] of 260 nM.

`Cc1ccc(Nc2ncc(C)c(Nc3ccc(CNS(=O)(=O)C4CC4)cc3)n2)cc1S(=O)(=O)NCc1ccccc1` [Compound I-195, N2-(3-benzylaminosulfonyl-4-methyl)phenyl-N4-(4-cyclopropylsulfonylaminomethyl)phenyl-5-methyl-2,4-pyrimidinediamine] gave an IC50 [1] of 66.4 nM, an IC50 [2] of 104 nM and an IC50 [3] of 230 nM.

Compound `Cc1ccc(Nc2ncc(C)c(Nc3ccc(CNS(=O)(=O)C4CC4)cc3)n2)cc1S(=O)(=O)Nc1ccccc1` [Compound I-202, N4-(4-cyclopropylsulfonylaminomethyl)phenyl-5-methyl-N2-(4-methyl-3-phenylaminosulfonyl)phenyl-2,4-pyrimidinediamine] has an IC50 [1] of 86.5 nM, an IC50 [2] of 184 nM and an IC50 [3] of 482 nM.

With `CNS(=O)(=O)c1ccc(Nc2ncc(C)c(Nc3cccc(CNS(=O)(=O)C4CC4)c3)n2)cc1` [Compound I-207, N4-(3-cyclopropylsulfonylaminomethyl)phenyl-5-methyl-N2-(4-methylaminosulfonyl)phenyl-2,4-pyrimidinediamine] the IC50 [1] was 86.5 nM, the IC50 [2] was 158 nM and the IC50 [3] was 312 nM.

Compound `CCNS(=O)(=O)c1cccc(Nc2ncc(C)c(Nc3cccc(CNS(=O)(=O)C4CC4)c3)n2)c1` [Compound I-208, N4-(3-cyclopropylsulfonylaminomethyl)phenyl-N2-(3-ethylaminosulfonyl)phenyl-5-methyl-2,4-pyrimidinediamine] has an IC50 [1] of 74.3 nM, an IC50 [2] of 45.8 nM and an IC50 [3] of 257 nM.

Work on `COCCNS(=O)(=O)c1cc(Nc2ncc(C)c(Nc3cccc(CNS(=O)(=O)C4CC4)c3)n2)ccc1C` [Compound I-210, N4-(3-cyclopropylsulfonylaminomethyl)phenyl-N2-[3-(2-methoxyethyl)aminosulfonyl-4-methyl]phenyl-5-methyl-2,4-pyrimidinediamine] yielded an IC50 [1] of 128 nM, an IC50 [2] of 143 nM and an IC50 [3] of 175 nM.

With `Cc1cnc(Nc2ccc(S(N)(=O)=O)cc2)nc1Nc1ccc2c(c1)CCN(S(=O)(=O)C1CC1)C2` [II-1, N2-(4-aminosulfonyl)phenyl-N4-[(N-cyclopropylsulfonyl)-1,2,3,4-tetrahydroisoquinolin-6-yl]-5-methyl-2,4-pyrimidinediamine] the IC50 [1] was 42.3 nM, the IC50 [2] was 108 nM and the IC50 [3] was 229 nM.

With `Cc1ccc(Nc2ncc(C)c(Nc3ccc4c(c3)CCN(S(=O)(=O)C3CC3)C4)n2)cc1S(N)(=O)=O` [II-3, N2-(3-aminosulfonyl-4-methyl)phenyl-N4-[(N-cyclopropylsulfonyl)-1,2,3,4-tetrahydroisoquinolin-6-yl]-5-methyl-2,4-pyrimidinediamine] the IC50 [1] was 19.4 nM, the IC50 [2] was 47.5 nM and the IC50 [3] was 87.9 nM.

Compound `Cc1cnc(Nc2cccc(S(N)(=O)=O)c2)nc1Nc1ccc2c(c1)CN(S(=O)(=O)C1CC1)C2` [II-8, N2-(3-Aminosulfonyl-phenyl)-N4-[(2-cyclopropylsulfonyl)-isoindolin-5-yl]-5-methyl-2,4-pyrimidinediamine] has an IC50 [1] of 97.9 nM, an IC50 [2] of 147 nM and an IC50 [3] of 775 nM.
